Measurements taken from patent publication US12653191B2, “Active compound combinations” (Bayer Aktiengesellschaft, priority 2020, dated 2026).
Read-outs that look alike come from different tables or passages of the source.

Tests used:
Assay type in all cases: cell-based
Alternaria alternata = assay: in vitro-Test with fungal microorganisms, Method B (tables A13-A22); details: Alternaria alternata, single compound, 10 ppm; read-out: Efficacy
Summary of the method: (§1)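 Cpd in MeOH + alkylaryl-polyglycol-ether, solvent evaporated; liquid medium + fungal spores/mycelium added; OD600 read; 3–7 d, 20° C., 85% RH; growth inhibition by photometry, % efficacy vs untreated ctrl.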

Cordana musae [1] = assay: in vitro-Test with fungal microorganisms, Method A (tables E1-E8); details: Neocordana musae, read-out: Efficacy %
Summary of the method: (§2)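 Methanol/emulsifier compound solution evaporated in well; liquid potato dextrose medium + spore or mycelium suspension added; 20° C, 85% RH, 3-5 d; photometric read 620 nm; % efficacy vs untreated.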

Fusarium culmorum [2] = assay: in vitro-Test with fungal microorganisms, Method A (tables G1-G4); details: alone
Summary of the method: as §2

[3] = test system: Ustilago segetum var. avenae; assay: in vitro-Test with fungal microorganisms, Method B (tables I6-I11); details: read-out: Efficacy %
Summary of the method: as §1

Cercospora beticola [4] = assay: in vitro-Test with fungal microorganisms, Method B (tables C11-C20); details: Cercospora beticola, single compound, read-out: Efficacy %
Summary of the method: as §1

Diaporthe citri [5] = assay: in vitro-Test with fungal microorganisms, Method A (tables F1-F11)
Summary of the method: as §2

[6] = test system: Colletotrichum lindemuthianum; assay: in vitro-Test with fungal microorganisms, Method A (tables D1-D8); details: Colletotrichum lindemuthianum, read-out: Efficacy %
Summary of the method: as §2

Diaporthe citri [7] = assay: in vitro-Test with fungal microorganisms, Method B (tables F12-F15)
Summary of the method: as §1

Botrytis cinerea [8] = assay: in vitro-Test with fungal microorganisms, Method B (tables B15-B18); details: Botrytis cinerea, read-out: Efficacy %
Summary of the method: as §1

Parastagonospora nodorum = assay: in vitro-Test with fungal microorganisms, Method B (tables H5-H8); details: Parastagonospora nodorum, read-out: Efficacy
Summary of the method: as §1

Botrytis cinerea [9] = assay: in vitro-Test with fungal microorganisms, Method A (tables B1-B14); details: Botrytis cinerea, alone, 0.4 ppm; read-out: Efficacy %
Summary of the method: as §2

Fusarium culmorum [10] = assay: in vitro-Test with fungal microorganisms, Method B (tables G5-G15); details: Fusarium culmorum, single active compound, read-out: Efficacy
Summary of the method: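 Read photometrically at 600 nm after 3-7 days at 20° C and 85% relative humidity, Fusarium culmorum growth inhibition is expressed against untreated control. Wells hold solvent-evaporated compound (from methanol/emulsifier) overlaid with spore- or mycelium-amended growth medium.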

Cercospora beticola [11] = assay: in vitro-Test with fungal microorganisms, Method A (tables C1-C10); details: Cercospora beticola, read-out: Efficacy %
Summary of the method: as §2

Cordana musae [12] = assay: in vitro-Test with fungal microorganisms, Method B (tables E9-E16); details: Neocordana musae, single active, read-out: Efficacy
Summary of the method: as §1

Colletotrichum coccodes = assay: in vitro-Test with fungal microorganisms, Method B (tables J1-J11); details: Colletotrichum coccodes, read-out: Efficacy %
Summary of the method: as §1

Fc1ccc(Oc2ccnc3cc(Cl)cc(Cl)c23)cc1 [(13.005) quinoxyfen, quinoxyfen]
inhibition of growth at 10 ppm (Alternaria alternata): 30% | inhibition of growth at 0.4 ppm (Cordana musae [1]; mixing partner alone): 0% | inhibition of growth at 2 ppm (Cordana musae [1]; mixing partner alone): 0% | inhibition of growth at 10 ppm (Cordana musae [1]; mixing partner alone): 0% | inhibition of growth at 0.08 ppm (Cordana musae [1]; single substance, 0.08 ppm): 0% | inhibition of growth at 0.4 ppm (Cordana musae [1]; single substance): 0% | inhibition of growth at 2 ppm (Cordana musae [1]; single substance): 0% | inhibition of growth at 10 ppm (Cordana musae [1]; single substance): 34% | Efficacy (Fusarium culmorum [2]; 10.0 ppm): 0% | inhibition of growth at 0.08 ppm (Fusarium culmorum [2]; Fusarium culmorum, 0.08 ppm, read-out: Efficacy): 0% | inhibition of growth at 10 ppm (Fusarium culmorum [2]; Fusarium culmorum, 10.0 ppm, read-out: Efficacy): 0% | inhibition of growth at 0.08 ppm ([3]; 0.08 ppm): 0% | inhibition of growth at 2 ppm ([3]; 2 ppm): 0% | inhibition of growth at 10 ppm ([3]; 10 ppm): 9% | inhibition of growth at 0.4 ppm (Cercospora beticola [4]; 0.4 ppm): 0% | inhibition of growth at 2 ppm (Cercospora beticola [4]; 2 ppm): 0% | inhibition of growth at 10 ppm (Cercospora beticola [4]; 10 ppm): 4% | inhibition of growth at 0.08 ppm (Diaporthe citri [5]; Diaporthe citri, Table F10, 0.08 ppm alone, read-out: Efficacy): 52% | inhibition of growth at 0.4 ppm (Diaporthe citri [5]; Diaporthe citri, Table F10, 0.4 ppm alone, read-out: Efficacy): 6% | inhibition of growth at 2 ppm (Diaporthe citri [5]; Diaporthe citri, Table F10, 2.0 ppm alone, read-out: Efficacy): 10% | inhibition of growth at 10 ppm (Diaporthe citri [5]; Diaporthe citri, Table F10, 10.0 ppm alone, read-out: Efficacy): 20% | inhibition of growth at 0.4 ppm (Diaporthe citri [5]; Diaporthe citri, applied alone, 0.4 ppm, read-out: Efficacy): 15% | inhibition of growth at 10 ppm (Diaporthe citri [5]; Diaporthe citri, applied alone, 10.0 ppm, read-out: Efficacy): 41% | Efficacy (Diaporthe citri [5]; applied alone, 2.0 ppm): 0% | inhibition of growth at 0.08 ppm ([6]; mixing partner alone, 0.08 ppm): 0% | inhibition of growth at 0.4 ppm ([6]; mixing partner alone, 0.4 ppm): 0% | inhibition of growth at 2 ppm ([6]; mixing partner alone, 2.0 ppm): 0% | inhibition of growth at 0.08 ppm ([6]; single active at 0.08 ppm): 1% | inhibition of growth at 0.4 ppm ([6]; single active at 0.4 ppm): 0% | inhibition of growth at 2 ppm ([6]; single active at 2.0 ppm): 0% | inhibition of growth at 10 ppm ([6]; single active at 10.0 ppm): 24% | Efficacy (Diaporthe citri [7]; Table F13, 0.08 ppm alone): 0% | Efficacy (Diaporthe citri [7]; Table F13, 2 ppm alone): 24% | Efficacy (Diaporthe citri [7]; Table F15, 0.4 ppm alone): 0% | Efficacy (Diaporthe citri [7]; Table F15, 2 ppm alone): 13% | Efficacy (Diaporthe citri [7]; Table F15, 10 ppm alone): 76% | inhibition of growth at 0.08 ppm (Botrytis cinerea [8]; 0.08 ppm alone): 0% | inhibition of growth at 0.4 ppm (Botrytis cinerea [8]; 0.4 ppm alone): 0% | inhibition of growth at 0.08 ppm (Parastagonospora nodorum; 0.08 ppm): 5% | inhibition of growth at 0.4 ppm (Parastagonospora nodorum; 0.4 ppm): 4% | inhibition of growth at 2 ppm (Parastagonospora nodorum; 2 ppm): 1% | inhibition of growth at 10 ppm (Parastagonospora nodorum; 10 ppm): 33% | inhibition of growth at 0.4 ppm (Botrytis cinerea [9]): 0% | inhibition of growth at 0.08 ppm (Fusarium culmorum [10]; 0.08 ppm): 0% | inhibition of growth at 0.4 ppm (Fusarium culmorum [10]; 0.4 ppm): 2% | inhibition of growth at 10 ppm (Fusarium culmorum [10]; 10 ppm): 8% | inhibition of growth at 0.08 ppm (Cercospora beticola [11]; 0.08 ppm alone): 10% | inhibition of growth at 0.4 ppm (Cercospora beticola [11]; 0.4 ppm alone): 0% | inhibition of growth at 2 ppm (Cercospora beticola [11]; 2.0 ppm alone): 4% | inhibition of growth at 10 ppm (Cercospora beticola [11]; 10.0 ppm alone): 34% | inhibition of growth at 0.08 ppm (Cordana musae [12]; 0.08 ppm): 0% | inhibition of growth at 0.4 ppm (Cordana musae [12]; 0.4 ppm): 0% | inhibition of growth at 10 ppm (Cordana musae [12]; 10 ppm): 2% | inhibition of growth at 0.08 ppm (Colletotrichum coccodes; 0.08 ppm): 0% | inhibition of growth at 0.4 ppm (Colletotrichum coccodes; 0.4 ppm): 0% | inhibition of growth at 2 ppm (Colletotrichum coccodes; 2 ppm): 48% | inhibition of growth at 0.08 ppm (Colletotrichum coccodes; single active compound at 0.08 ppm): 0% | inhibition of growth at 0.4 ppm (Colletotrichum coccodes; single active compound at 0.4 ppm): 0% | inhibition of growth at 2 ppm (Colletotrichum coccodes; single active compound at 2 ppm): 18% | inhibition of growth at 10 ppm (Colletotrichum coccodes; single active compound at 10 ppm): 28%
